ChEMBL document CHEMBL1201862, “PubChem BioAssay data set” (2004)
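Cultured in 96-well plates, cells were exposed to test compound for 48 hours across five concentrations. GI50 is the concentration that inhibits growth by half.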 The source made the active and inactive calls. Rule as the data show it: active = GI50 up to about 1.1 µM and inactive = higher.

Key:
Assay in all cases: growth of human tumour cells (NCI), 48 h
[1] = system: PC-3
[2] = system: T47D
[3] = system: UACC-62
[4] = system: OVCAR-5
[5] = system: SK-MEL-2
[6] = system: NCI-H23
[7] = system: M14
[8] = system: CAKI-1
[9] = system: ACHN
[10] = system: NCI-H522
[11] = system: SR
[12] = system: MCF7
[13] = system: DU-145
[14] = system: SNB-19
[15] = system: A498
[16] = system: HOP-92
[17] = system: Hs-578T
[18] = system: HL-60
[19] = system: SNB-75
[20] = system: SK-MEL-28

Row | Compound | GI50 [1] | GI50 [2] | GI50 [3] | GI50 [4] | GI50 [5] | GI50 [6] | GI50 [7] | GI50 [8] | GI50 [9] | GI50 [10] | GI50 [11] | GI50 [12] | GI50 [13] | GI50 [14] | GI50 [15] | GI50 [16] | GI50 [17] | GI50 [18] | GI50 [19] | GI50 [20]
1 | COc1ccc(-n2c(N)c(C#N)c(C#N)c2-c2cccc([N+](=O)[O-])c2)cc1 | 33.5 µM (inactive) | 35.2 µM (inactive) | 17.5 µM (inactive) | > 100 µM (inactive) | 1.77 µM (inactive) | > 100 µM (inactive) | > 100 µM (inactive) | > 100 µM (inactive) | 91 µM (inactive) | > 100 µM (inactive) | 18.7 µM (inactive) | 61.5 µM (inactive) | 43.3 µM (inactive) | 49.8 µM (inactive) | > 100 µM (inactive) | 15.3 µM (inactive) | 15.3 µM (inactive) | > 100 µM (inactive) | 2.96 µM (inactive) | –
2 | C1CN2CCNCCN(CCN1)CC2 | > 100 µM (inactive) | > 100 µM (inactive) | > 100 µM (inactive) | > 100 µM (inactive) | > 100 µM (inactive) | > 100 µM (inactive) | > 100 µM (inactive) | > 100 µM (inactive) | > 100 µM (inactive) | > 100 µM (inactive) | > 100 µM (inactive) | > 100 µM (inactive) | > 100 µM (inactive) | > 100 µM (inactive) | > 100 µM (inactive) | > 100 µM (inactive) | > 100 µM (inactive) | 20.9 µM (inactive) | > 100 µM (inactive) | > 100 µM (inactive)
3 | C=C([C@@]1(O)C[C@H]2[C@H](CCC2(OC)OC)[C@@H]2c3ccccc3O[C@@H]21)[Si](C)(C)C | > 100 µM (inactive) | 69.8 µM (inactive) | > 100 µM (inactive) | > 100 µM (inactive) | > 100 µM (inactive) | – | > 100 µM (inactive) | > 100 µM (inactive) | > 100 µM (inactive) | 89.7 µM (inactive) | 31.9 µM (inactive) | 93.1 µM (inactive) | > 100 µM (inactive) | > 100 µM (inactive) | > 100 µM (inactive) | 1.78 µM (inactive) | > 100 µM (inactive) | 25.5 µM (inactive) | > 100 µM (inactive) | > 100 µM (inactive)
4 | COc1cc(/C=N/NC(=O)c2ccc(NC(C)=O)cc2OC)ccc1O | 43.5 µM (inactive) | 84.5 µM (inactive) | 61.9 µM (inactive) | > 100 µM (inactive) | 26.9 µM (inactive) | 54.6 µM (inactive) | > 100 µM (inactive) | > 100 µM (inactive) | 38.9 µM (inactive) | 96.2 µM (inactive) | > 100 µM (inactive) | > 100 µM (inactive) | 69.5 µM (inactive) | 74.3 µM (inactive) | 86.3 µM (inactive) | 22.6 µM (inactive) | 32.4 µM (inactive) | > 100 µM (inactive) | 26.7 µM (inactive) | > 100 µM (inactive)
5 | CCCc1cc(=O)oc2c(C=O)c(O)cc(O)c12 | 25.1 µM (inactive) | 23.1 µM (inactive) | 19.8 µM (inactive) | 26.7 µM (inactive) | 18.2 µM (inactive) | 20.3 µM (inactive) | 22.8 µM (inactive) | 27 µM (inactive) | 26.5 µM (inactive) | 15.1 µM (inactive) | 27.8 µM (inactive) | 27 µM (inactive) | 27.5 µM (inactive) | 25.8 µM (inactive) | 19.5 µM (inactive) | 18.7 µM (inactive) | 22.6 µM (inactive) | 18.3 µM (inactive) | 11.3 µM (inactive) | 23.2 µM (inactive)
6 | CC1OC(OC2C(O)C(O)C(O)C(O)C2O)C(N)CC1NC(=N)C(=O)O (configuration not stated) | > 100 µM (inactive) | > 100 µM (inactive) | > 100 µM (inactive) | > 100 µM (inactive) | > 100 µM (inactive) | > 100 µM (inactive) | > 100 µM (inactive) | > 100 µM (inactive) | > 100 µM (inactive) | > 100 µM (inactive) | > 100 µM (inactive) | > 100 µM (inactive) | > 100 µM (inactive) | > 100 µM (inactive) | > 100 µM (inactive) | > 100 µM (inactive) | > 100 µM (inactive) | > 100 µM (inactive) | > 100 µM (inactive) | > 100 µM (inactive)
7 | Oc1ccc(Cc2cc(Cl)cc(Cl)c2O)cc1Cl | 17.7 µM (inactive) | 18.4 µM (inactive) | 14.7 µM (inactive) | 18.4 µM (inactive) | 15.5 µM (inactive) | 16.3 µM (inactive) | 15.7 µM (inactive) | 22.6 µM (inactive) | 17.4 µM (inactive) | 16.7 µM (inactive) | 14.2 µM (inactive) | 18.1 µM (inactive) | 10.1 µM (inactive) | 16.9 µM (inactive) | 19.5 µM (inactive) | 18.2 µM (inactive) | 18 µM (inactive) | 1.04 µM (active) | < 0.01 µM (active) | 17.3 µM (inactive)
8 | CCC1(C)NC(c2cnccn2)=NN1c1ccc(Cl)cc1 (configuration not stated) | 65.9 µM (inactive) | 15.5 µM (inactive) | > 100 µM (inactive) | > 100 µM (inactive) | > 100 µM (inactive) | > 100 µM (inactive) | > 100 µM (inactive) | > 100 µM (inactive) | > 100 µM (inactive) | > 100 µM (inactive) | 22.1 µM (inactive) | 45.4 µM (inactive) | 65.2 µM (inactive) | > 100 µM (inactive) | > 100 µM (inactive) | > 100 µM (inactive) | > 100 µM (inactive) | 48.8 µM (inactive) | 19.3 µM (inactive) | > 100 µM (inactive)
9 | O=c1c2ccccc2n2nnc3ccc(NCCNCCO)c1c32 | 1.29 µM (inactive) | 5.82 µM (inactive) | 2.42 µM (inactive) | 2.34 µM (inactive) | 3.19 µM (inactive) | 2.31 µM (inactive) | 1.91 µM (inactive) | 1.84 µM (inactive) | 0.824 µM (active) | 1.82 µM (inactive) | 0.649 µM (active) | 3.24 µM (inactive) | 0.112 µM (active) | 3.05 µM (inactive) | 1.89 µM (inactive) | 1.88 µM (inactive) | 2.03 µM (inactive) | 1.71 µM (inactive) | 1.42 µM (inactive) | 2.87 µM (inactive)
10 | O=S1(=O)c2ccccc2C(=NO)c2ccccc21 | 43.4 µM (inactive) | 80 µM (inactive) | > 100 µM (inactive) | > 100 µM (inactive) | > 100 µM (inactive) | > 100 µM (inactive) | > 100 µM (inactive) | > 100 µM (inactive) | > 100 µM (inactive) | 37.1 µM (inactive) | 29.8 µM (inactive) | > 100 µM (inactive) | > 100 µM (inactive) | – | > 100 µM (inactive) | > 100 µM (inactive) | 63.8 µM (inactive) | 14.8 µM (inactive) | > 100 µM (inactive) | > 100 µM (inactive)
11 | C[n+]1[n-]o/c(=N\N=O)c1-c1cc(-c2/c(=N/N=O)o[n-][n+]2C)cc(-c2/c(=N\N=O)o[n-][n+]2C)c1 | > 100 µM (inactive) | > 100 µM (inactive) | > 100 µM (inactive) | > 100 µM (inactive) | > 100 µM (inactive) | > 100 µM (inactive) | > 100 µM (inactive) | > 100 µM (inactive) | > 100 µM (inactive) | > 100 µM (inactive) | > 100 µM (inactive) | > 100 µM (inactive) | > 100 µM (inactive) | > 100 µM (inactive) | > 100 µM (inactive) | > 100 µM (inactive) | > 100 µM (inactive) | > 100 µM (inactive) | 68.1 µM (inactive) | > 100 µM (inactive)
12 | COc1cccc2c1-c1nc(N)c3c(OC)cccc3c1C2=O | > 100 µM (inactive) | > 100 µM (inactive) | > 100 µM (inactive) | > 100 µM (inactive) | > 100 µM (inactive) | 24.9 µM (inactive) | > 100 µM (inactive) | > 100 µM (inactive) | – | > 100 µM (inactive) | > 100 µM (inactive) | > 100 µM (inactive) | > 100 µM (inactive) | – | > 100 µM (inactive) | > 100 µM (inactive) | 22.2 µM (inactive) | 19.6 µM (inactive) | 22.3 µM (inactive) | > 100 µM (inactive)
13 | CC(C)(C)OC(=O)n1cc(C2CN(O)C(=O)C23CCC(=O)N3Cc2ccccc2)c2ccccc21 (configuration not stated) | 28 µM (inactive) | 50.6 µM (inactive) | 68.1 µM (inactive) | 46.9 µM (inactive) | 14.8 µM (inactive) | 61.1 µM (inactive) | > 100 µM (inactive) | 54.6 µM (inactive) | – | 14.1 µM (inactive) | 44.6 µM (inactive) | 33.5 µM (inactive) | 60.1 µM (inactive) | 68.7 µM (inactive) | 24.8 µM (inactive) | 4.46 µM (inactive) | 42.3 µM (inactive) | 54.2 µM (inactive) | 32.7 µM (inactive) | –
14 | CC(C)=CC[C@]12CCN(C)[C@H]1N(S(=O)(=O)c1ccccc1)c1ccccc12 | > 54 µM (inactive) | 9.73 µM (inactive) | > 35.6 µM (inactive) | > 59.8 µM (inactive) | 15.5 µM (inactive) | > 19.9 µM (inactive) | – | > 25.6 µM (inactive) | > 54.2 µM (inactive) | 15.8 µM (inactive) | 20.7 µM (inactive) | > 42.8 µM (inactive) | > 30.8 µM (inactive) | > 20.3 µM (inactive) | > 100 µM (inactive) | 3.38 µM (inactive) | > 45.4 µM (inactive) | 28.4 µM (inactive) | 17.3 µM (inactive) | > 64.6 µM (inactive)
